The values that follow come from publication PMC11232401, “Characterization of antimalarial activity of artemisinin-based hybrid drugs” (Antimicrobial Agents and Chemotherapy, 2024).

Series [1] is described as follows: Quantification of hybrid 1 in uRBC-derived supernatants by HPLC and fluorescence. Format: in vitro ADME, human. How it is done: Each well of 96-well plates was filled with 125 µL drug (1000 nM) and 125 µL uninfected red blood cells (uRBC), which were mixed to obtain a final drug concentration of 500 nM and 2.5% or 1.0% hematocrit. The plates were incubated at 37°C in the standard gas mixture. After each time point (10 min, 6 h, and 24 h), supernatants were carefully harvested and stored at −80°C until use. Untreated uRBC incubated at the same times were used as negative controls, and DHA and AQ were employed as standard drugs. Next, supernatants were diluted in a complete medium in six different dilutions and were aliquoted in new plates. The antimalarial activity of these supernatants and freshly dissolved drugs was determined in an asynchronous parasite culture of P. falciparum (3D7, D10, and W2 strains) for 72 h using the same method described above, and parasite viability was assessed by the pLDH ([38]) and SYBR Green I ([41]) methods. […] Decay in drug concentration was estimated by using the normalized slope values calculated from linear regression fits using the slope values of a standard curve as reference. […]
To test the association between the antimalarial activity of hybrid 1 supernatants and chemical stability, the concentration of hybrid 1 in these supernatants was quantified by high-performance liquid chromatography (HPLC) and fluorescence in a microplate reader. The concentration of hybrid 1 remained constant under incubation with PBS over the analyzed time (Fig. 3E; Fig. S1). […] Moreover, we defined the slopes calculated from linear regression fits to accurately reflect the effective decay in drug concentration because peroxides could covalently bind to proteins present in the supernatant. […]
Figure S1: Quantification of hybrid LH70 (1) by fluorescence and HPLC in the uRBC-derived supernatants. […] The drug was quantified in the supernatant of the cell culture after the second and third steps of medium replacement and washing out. […] RFU = relative fluorescence units.

For the next series, the system named is P. falciparum. As to the kind of experiment: Parasite growth inhibition (cell potency). Format: cell-based. Conditions: Plasmodium falciparum; strain and exposure not stated at the place.
On the set-up of series [2]: method as in PMID 15124211. Conditions: cited from earlier work.

On to `COCCOCCOCCOCCn1c(-c2ccc(-n3cc(-c4ccc(OC5OC6OC7(C)CCC8C(C)CCC(C5C)C68OO7)cc4)nn3)cc2)nc2ccccc21` (centres unmarked) [Hybrid 1], for which the “concentration of hybrid 1 in supernatant at 24 h” value in series [1] (uRBC hematocrit 2.5%, start 500 nM, HPLC) turned out to be 256 nM. In addition, the “Maximum rate of reduction of drug concentration between 10 min and 24 h, HPLC” value in series [1] (uRBC supernatants, slopes of linear regression fits, HPLC) is reported as 56.4%. Also, in series [1] (uRBC supernatants, slopes of linear regression fits, fluorescence), the “Maximum rate of reduction of drug concentration between 10 min and 24 h, fluorescence microplate reader” value is 65.4%.
Turning to `C[C@H]1[C@@H](O)O[C@@H]2O[C@@]3(C)CC[C@H]4[C@H](C)CC[C@@H]1[C@@]24OO3` [DHA, dihydroartemisinin, reference compound], in the series on P. falciparum, the IC50 (as a rule, the concentration that inhibits the measured activity by half) turned out to be 5 nM. The “plasma peak of DHA in patients” value in series [2] is recorded as 700 nM.
